Laboratory results as given in US10052330B2, “Substituted pyrido[3,4-b]pyrazines as Syk inhibitors” (HUTCHISON MEDIPHARMA LIMITED, priority 2011, dated 2018).
Where two headings read alike, the source gives them in different places.

Key:
RBL-2H3 cells = experiment: IgE-induced Beta-hexosaminidase secretion in RBL-2H3 cells; format: cell-based; settings: Rattus norvegicus
Syk kinase = Syk kinase (Homo sapiens, UniProt P43405); experiment: Syk kinase enzymatic assay (Kit-Tyr 2 Peptide); format: biochemical; settings: 8 concentrations, 1 μM down to 0.0003 μM; upper bound of each range is 'less than'; read-out: IC50: Enzymatic Activity (Syk kinase)
[1] = RBL-2H3, RBL-2H3 cells sensitized with SPE-7, stimulated with DNP-BSA, upper bound of each range is 'less than', read-out: IC50, IgE-induced Beta-hexosaminidase secretion

Row | Compound | IC50 (RBL-2H3 cells; [1]) [µM] | IC50 (Syk kinase) [µM] | IC50 (RBL-2H3 cells; RBL-2H3, read-out: IC50, IgE-induced Beta-hexosaminidase secretion) [µM]
1 | CC1CN(c2ccc(-c3cc4nccnc4c(NC[C@@H]4CNCCO4)n3)cc2F)CCO1 (mixture of isomers) [Compound 250] | 0.001 to 0.1 | 0.1 to 1 | –
2 | CC1CN(c2ccc(-c3cc4nccnc4c(NCC4CNCCC4(F)F)n3)cc2)CCO1 (single isomer, unassigned) [Compound 308] | 0.001 to 0.1 | 0.001 to 0.1 | –
3 | FC1(CNc2nc(-c3ccc(N4CCOCC4)cc3)cc3nccnc23)CCCNC1 (single isomer, unassigned) [Compound 377] | 0.001 to 0.1 | 0.001 to 0.1 | –
4 | Fc1cc(-c2cc3nccnc3c(NCC3(F)CCCNC3)n2)ccc1N1CCOCC1 (single isomer, unassigned) [Compound 382] | 0.001 to 0.1 | 0.001 to 0.1 | –
5 | C[C@H]1CN(c2ccc(-c3cc4nccnc4c(NCC4CNCCC4(F)F)n3)cc2)CCO1 (single isomer, unassigned) [Compound 396] | 0.001 to 0.1 | 0.001 to 0.1 | –
6 | CN1CCN(c2ccc(-c3cc4nccnc4c(NCC4CN(S(C)(=O)=O)CCO4)n3)cc2)CC1 (stereo in doubt) [Compound 486, (S)-7-(4-(4-methylpiperazin-1-yl)phenyl)-N-((4-(methylsulfonyl)morpholin-2-yl)methyl)pyrido[4,3-b]pyrazin-5-amine] | 0.001 to 0.1 | 0.001 to 0.1 | –
7 | CN(CCCN)c1nc(-c2ccc(N3CCOCC3)cc2)cc2nccnc12 [Compound 4] | 0.1 to 1 | 0.1 to 1 | –
8 | CN(C)c1cccc(-c2cc3nccnc3c(NCC3CCCNC3)n2)c1 (centres unmarked) [Compound 13] | 0.1 to 1 | 0.1 to 1 | –
9 | COc1cc(OC)cc(-c2cc3nccnc3c(NCC3CCCNC3)n2)c1 (centres unmarked) [Compound 15] | 0.1 to 1 | 0.1 to 1 | –
10 | COc1cccc(-c2cc3nccnc3c(NCC3CCCNC3)n2)c1 (centres unmarked) [Compound 17] | 0.1 to 1 | 0.1 to 1 | –
11 | Cn1cc(-c2cc3nccnc3c(NCC3CCCNC3)n2)cn1 (centres unmarked) [Compound 18] | – | 0.1 to 1 | 0.1 to 1
12 | COc1ccc(-c2cc3nccnc3c(NCC3CCCNC3)n2)cc1F (centres unmarked) [Compound 19] | 0.001 to 0.1 | 0.001 to 0.1 | –
13 | CN(C)c1ccc(-c2cc3nccnc3c(NC[C@H]3CCCNC3)n2)cc1 [Compound 21] | 0.001 to 0.1 | 0.001 to 0.1 | –
14 | Cc1ccc(-c2cc3nccnc3c(NCC3CCCNC3)n2)cc1 (centres unmarked) [Compound 22] | 0.001 to 0.1 | 0.001 to 0.1 | –
15 | Fc1ccc(-c2cc3nccnc3c(NCC3CCCNC3)n2)cc1 (centres unmarked) [Compound 23] | 0.1 to 1 | 0.1 to 1 | –
16 | Clc1cccc(-c2cc3nccnc3c(NCC3CCCNC3)n2)c1 (centres unmarked) [Compound 24] | 0.1 to 1 | 0.1 to 1 | –
17 | c1cnc2c(NCC3CCCNC3)nc(-c3cn[nH]c3)cc2n1 (centres unmarked) [Compound 25] | 0.1 to 1 | 0.1 to 1 | –
18 | COc1ccc(-c2cc3nccnc3c(NCC3CCCNC3)n2)cc1OC (centres unmarked) [Compound 26] | 0.1 to 1 | 0.001 to 0.1 | –
19 | NC1CCN(c2nc(-c3ccc(N4CCOCC4)cc3)cc3nccnc23)C1 (centres unmarked) [Compound 28] | 0.1 to 1 | 0.1 to 1 | –
20 | COc1ccc(-c2cc3nccnc3c(NC[C@H]3CCCNC3)n2)cc1OC [Compound 33] | 0.1 to 1 | 0.001 to 0.1 | –
21 | c1cnc2c(NCC3CCNCC3)nc(-c3ccc(N4CCOCC4)cc3)cc2n1 [Compound 37] | 0.1 to 1 | 0.1 to 1 | –

Row | Compound | IC50 (RBL-2H3 cells; [1]) [µM] | IC50 (Syk kinase) [µM] | IC50 (RBL-2H3 cells; RBL-2H3, read-out: IC50, IgE-induced Beta-hexosaminidase secretion) [µM]
22 | c1cnc2c(N[C@@H]3CCNC3)nc(-c3ccc(N4CCOCC4)cc3)cc2n1 [Compound 39] | 0.1 to 1 | 0.1 to 1 | –
23 | Cc1ccc(-c2cc3nccnc3c(NC[C@H]3CCCNC3)n2)cc1 [Compound 40] | 0.1 to 1 | 0.001 to 0.1 | –
24 | Cc1ccc(-c2cc3nccnc3c(NC[C@H]3CCCNC3)n2)cc1F [Compound 41] | 0.1 to 1 | 0.001 to 0.1 | –
25 | CC(C)COc1ccc(-c2cc3nccnc3c(NCC3CCCNC3)n2)cc1 (centres unmarked) [Compound 42] | 0.1 to 1 | 0.001 to 0.1 | –
26 | CCc1ccc(-c2cc3nccnc3c(NCC3CCCNC3)n2)cc1 (centres unmarked) [Compound 45] | 0.1 to 1 | 0.1 to 1 | –
27 | CC(C)c1ccc(-c2cc3nccnc3c(NCC3CCCNC3)n2)cc1 (centres unmarked) [Compound 46] | 0.1 to 1 | 0.001 to 0.1 | –
28 | CC(C)(C)c1ccc(-c2cc3nccnc3c(NCC3CCCNC3)n2)cc1 (centres unmarked) [Compound 47] | 0.1 to 1 | 0.001 to 0.1 | –
29 | CC(C)Oc1ccc(-c2cc3nccnc3c(NCC3CCCNC3)n2)cc1F (centres unmarked) [Compound 52] | 0.1 to 1 | 0.001 to 0.1 | –
30 | FC(F)(F)Oc1ccc(-c2cc3nccnc3c(NCC3CCCNC3)n2)cc1 (centres unmarked) [Compound 54] | 0.1 to 1 | 0.001 to 0.1 | –
31 | Clc1ccc(-c2cc3nccnc3c(NCC3CCCNC3)n2)cc1 (centres unmarked) [Compound 55] | 0.1 to 1 | 0.001 to 0.1 | –
32 | CNc1ccc(-c2cc3nccnc3c(NCC3CCCNC3)n2)cn1 (centres unmarked) [Compound 60] | 0.1 to 1 | 0.001 to 0.1 | –
33 | FC(F)(F)c1ccc(-c2cc3nccnc3c(NCC3CCCNC3)n2)cc1 (centres unmarked) [Compound 63] | 0.1 to 1 | 0.001 to 0.1 | –
34 | Oc1ccc(-c2cc3nccnc3c(NC[C@H]3CCCNC3)n2)cc1F [Compound 67] | 0.1 to 1 | 0.001 to 0.1 | –
35 | CC(C)(O)[C@@H]1CCN(c2nc(-c3ccc(N4CCOCC4)cc3)cc3nccnc23)C1 [Compound 170] | 0.1 to 1 | – | –
36 | OCC1(CNc2nc(-c3ccc(N4CCOCC4)cc3)cc3nccnc23)COC1 [Compound 171] | 0.1 to 1 | – | –
37 | N#CCCNc1nc(-c2ccc(N3CCOCC3)cc2)cc2nccnc12 [Compound 187] | 0.1 to 1 | – | –
38 | FC(F)CNc1nc(-c2ccc(N3CCOCC3)cc2)cc2nccnc12 [Compound 197] | 0.1 to 1 | – | –
39 | FC(F)(F)C1CCC(CNc2nc(-c3ccc(N4CCOCC4)cc3)cc3nccnc23)CN1 (centres unmarked) [Compound 199] | 0.1 to 1 | – | –
40 | Fc1cc(-c2cc3nccnc3c(NC[C@H]3CNCCC3(F)F)n2)ccc1N1CCOCC1 [Compound 369, (R)—N-((4,4-difluoropiperidin-3-yl)methyl)-7-(3-fluoro-4-morpholinophenyl)pyrido[4,3-b]pyrazin-5-amine] | – | 0.1 to 1 | –
41 | FC1(F)CCNC[C@@H]1CNc1nc(-c2ccc(N3CCOCC3)nc2)cc2nccnc12 [Compound 375, (R)—N-((4,4-difluoropiperidin-3-yl)methyl)-7-(6-morpholinopyridin-3-yl)pyrido[4,3-b]pyrazin-5-amine] | – | 0.1 to 1 | –
42 | F[C@]1(CNc2nc(-c3ccc(N4CCOCC4)nc3)cc3nccnc23)CCCNC1 [Compound 379, (R)—N-((3-fluoropiperidin-3-yl)methyl)-7-(6-morpholinopyridin-3-yl)pyrido[4,3-b]pyrazin-5-amine] | – | 0.1 to 1 | –

Row | Compound | IC50 (RBL-2H3 cells; [1]) [µM] | IC50 (Syk kinase) [µM] | IC50 (RBL-2H3 cells; RBL-2H3, read-out: IC50, IgE-induced Beta-hexosaminidase secretion) [µM]
43 | CS(=O)(=O)c1ccc(-c2cc3nccnc3c(NC[C@H]3CNCCC3(F)F)n2)cc1 [Compound 391, (R)—N-((4,4-difluoropiperidin-3-yl)methyl)-7-(4-(methylsulfonyl)phenyl)pyrido[4,3-b]pyrazin-5-amine] | – | 0.1 to 1 | –
44 | NC(=O)CCC(=O)N1CCN(c2ccc(-c3cc4nccnc4c(NCC4CNCCO4)n3)cc2)CC1 (centres unmarked) [Compound 422] | – | 0.001 to 0.1 | –
45 | CS(=O)(=O)N1CCC(n2cc(-c3cc4nccnc4c(NC[C@@H]4CNCCO4)n3)cn2)CC1 [Compound 431] | – | 0.001 to 0.1 | –
46 | O=C(C(F)F)N1CCO[C@H](CNc2nc(-c3ccc(N4CCOCC4)c(Cl)c3)cc3nccnc23)C1 [Compound 452] | – | 0.1 to 1 | –
47 | CNc1ccc(-c2cc3nccnc3c(NC[C@@H]3CN(C(=O)C(F)F)CCO3)n2)cc1 [Compound 453] | – | 0.1 to 1 | –
48 | COc1ccc(-c2cc3nccnc3c(NC[C@@H]3CN(C(=O)C(F)F)CCO3)n2)cc1OC [Compound 454] | – | 0.1 to 1 | –
49 | CNc1ccc(-c2cc3nccnc3c(NC[C@@H]3CN(C(=O)C(F)F)CCO3)n2)cc1F [Compound 457] | – | 0.1 to 1 | –
50 | CS(=O)(=O)N1CCO[C@H](CNc2nc(-c3ccc(C4CCNCC4)cc3)cc3nccnc23)C1 [Compound 459] | – | 0.001 to 0.1 | –
51 | CNC(=O)COc1ccc(-c2cc3nccnc3c(NC[C@@H]3CN(C(=O)C(F)F)CCO3)n2)cc1 [Compound 461] | – | 0.1 to 1 | –
52 | CCN(CC)c1ccc(-c2cc3nccnc3c(NC[C@@H]3CN(C(=O)C(F)F)CCO3)n2)cc1 [Compound 471] | – | 0.1 to 1 | –
53 | CN(CCO)c1ccc(-c2cc3nccnc3c(NC[C@@H]3CNCCO3)n2)cc1 [Compound 472, (S)-2-(methyl(4-(5-(morpholin-2-ylmethylamino)pyrido[4,3-b]pyrazin-7-yl)phenyl)amino)ethanol] | – | 0.1 to 1 | –
54 | CS(=O)(=O)CCOc1ccc(-c2cc3nccnc3c(NC[C@@H]3CNCCO3)n2)cc1 [Compound 478, (S)-7-(4-(2-(methylsulfonyl)ethoxy)phenyl)-N-(morpholin-2-ylmethyl)pyrido[4,3-b]pyrazin-5-amine] | – | 0.1 to 1 | –
55 | CC[N+]1(CC)CCC(c2ccc(-c3cc4nccnc4c(NC[C@@H]4CN(C(=O)C(F)F)CCO4)n3)cc2)CC1 [Compound 480, (R)-4-(4-(5-((4-(2,2-difluoroacetyl)morpholin-2-yl)methylamino)pyrido[4,3-b]pyrazin-7-yl)phenyl)-1,1-diethylpiperidinium iodide] | – | 0.001 to 0.1 | –
56 | O=S1(=O)CCNCC1CNc1nc(-c2ccc(N3CCOCC3)c(F)c2)cc2nccnc12 (centres unmarked) [Compound 483] | – | 0.1 to 1 | –
57 | CN1CCN(c2ccc(-c3cc4nccnc4c(NCC4CNCCS4(=O)=O)n3)cc2)CC1 (centres unmarked) [Compound 484] | – | 0.1 to 1 | –
58 | CC(=O)N1CCN(c2ccc(-c3cc4nccnc4c(NC[C@@H]4CN(S(C)(=O)=O)CCO4)n3)cc2)CC1 [Compound 491] | – | 0.1 to 1 | –
59 | CS(=O)(=O)N1CCN(c2ccc(-c3cc4nccnc4c(NC[C@@H]4CN(S(C)(=O)=O)CCO4)n3)cc2)CC1 [Compound 492] | – | 0.1 to 1 | –
60 | CS(=O)(=O)N1CCC(c2ccc(-c3cc4nccnc4c(NC[C@@H]4CN(O)CCO4)n3)cc2)CC1 [Compound 496, (R)-2-((7-(4-(1-(methylsulfonyl)piperidin-4-yl)phenyl)pyrido[4,3-b]pyrazin-5-ylamino)methyl)morpholin-4-ol] | – | 0.1 to 1 | –
61 | CS(=O)(=O)N1CCC(c2ccc(-c3cc4nccnc4c(NCC(O)CN)n3)cc2)CC1 (centres unmarked) [Compound 509] | – | 0.1 to 1 | –
